Data from paper PMC9290503 (British Journal of Clinical Pharmacology, 2021).

Columns and labels:
[1] = Study 1001 single-rising-dose plasma pharmacokinetics; type: in vivo, human; conditions: plasma, Study 1001
[2] = Study 1001 single-dose urine pharmacokinetics; type: in vivo, human; conditions: for Aet, mean (CV%) / CLR, mean (CV%) / fe,t, mean (CV%): urine, Study 1001
[3] = tested on: rodent models of neurodevelopmental disorder; conditions: two rodent models of neurodevelopmental disorder; ref [8]; cited from earlier work
[4] = Study 1003 MRD cohorts plasma pharmacokinetics; type: in vivo, human; conditions: for AUC0–24, mean (CV%) / AUC0–∞, mean (CV%) / C max, mean (CV%) / t max, median (range) / t ½z, mean (CV%): plasma
[5] = 20 mg q.d., non‐Japanese, Day 1
[6] = 20 mg q.d., non‐Japanese, Day 10
[7] = 60 mg q.d., non‐Japanese, Day 1
[8] = 60 mg q.d., non‐Japanese, Day 10
[9] = 160 mg q.d., non‐Japanese, Day 1
[10] = 160 mg q.d., non‐Japanese, Day 10

## Cl.O=C(NC1CCOCC1)c1csc([C@@H]2C[C@H]2NCC2CC2)c1 [TAK‐418]
[1]; single oral dose 40 mg
  t ½z, mean (CV%): 3.868 (12.7) h
[1]; single oral dose 60 mg
  AUC0–24, mean (CV%): 1553.5 (29.4) h*ng mL^−1
  AUC0–∞, mean (CV%): 1584.3 (29.9) h*ng mL^−1
  t max, median (range): 1.00 (1.00–1.00) h
  t ½z, mean (CV%): 4.220 (14.9) h
[2]; 20–160 mg dose range, single dose (Tables 3 and 4)
  renal clearance: 5.81 to 8.68 L/h
[2]; after 20–160 mg dosing, single dose (Tables 3 and 4)
  recovered unchanged from urine: 13.3–19.5%
[2]; single oral dose 30 mg, fasted
  Aet, mean (CV%): 5.708 (13.0) mg
  CLR, mean (CV%): 8.683 (16.3) L h^−1
  fe,t, mean (CV%): 19.022 (13.0) %
[2]; single oral dose 40 mg
  Aet, mean (CV%): 5.333 (18.8) mg
  CLR, mean (CV%): 8.173 (38.1) L h^−1
  fe,t, mean (CV%): 13.335 (18.8) %
[2]; single oral dose 60 mg
  Aet, mean (CV%): 11.677 (35.2) mg
  CLR, mean (CV%): 7.242 (13.4) L h^−1
  fe,t, mean (CV%): 19.472 (35.2) %
[2]; within 24 hours
  recovered unchanged from urine: Approximately 20%
[3]
  autism symptoms: improved autism symptoms
[4]; 20 mg q.d.
  PK linearity point estimate, Day 10 AUC0–24 compared with Day 1 AUC0–∞: 1.29
[4]; 20 mg, Day 1
  AUC0–24, Japanese vs non‐Japanese participants: 1.21 fold
[4]; 20 mg, Day 10 steady state
  AUC0–24, Japanese compared with non‐Japanese participants: approximately the same
[4]; 60 mg q.d.
  PK linearity point estimate, Day 10 AUC0–24 compared with Day 1 AUC0–∞: 1.13
[4]; 160 mg q.d.
  PK linearity point estimate, Day 10 AUC0–24 compared with Day 1 AUC0–∞: 1.06
[4]; 20–160 mg q.d.
  mean terminal disposition phase half‐life (t ½z) at steady state: 4.35 to 5.36 h
[4]; Day 10, 20–160 mg q.d.
  median t max at steady state: 1.00 to 1.26 h
[4]; 20 mg q.d., Japanese, Day 1
  AUC0–24, mean (CV%): 610.3 (14.4) h*ng mL^−1
  AUC0–∞, mean (CV%): 619.0 (14.8) h*ng mL^−1
  C max, mean (CV%): 154.7 (6.0) ng mL^−1
  t max, median (range): 1.00 (0.50–1.50) h
[4]; 20 mg q.d., Japanese, Day 10
  AUC0–24, mean (CV%): 677.3 (10.9) h*ng mL^−1
  C max, mean (CV%): 171.3 (6.0) ng mL^−1
  t max, median (range): 1.00 (1.00–1.50) h
  t ½z, mean (CV%): 4.350 (14.4) h
[4]; [5]
  AUC0–24, mean (CV%): 503.3 (32.9) h*ng mL^−1
  AUC0–∞, mean (CV%): 515.3 (33.4) h*ng mL^−1
  C max, mean (CV%): 85.2 (33.8) ng mL^−1
  t max, median (range): 1.75 (1.00–3.00) h
[4]; [6]
  AUC0–24, mean (CV%): 668.2 (34.2) h*ng mL^−1
  C max, mean (CV%): 117.8 (30.1) ng mL^−1
  t max, median (range): 1.26 (1.00–2.00) h
  t ½z, mean (CV%): 4.997 (10.1) h
[4]; [7]
  AUC0–24, mean (CV%): 1445.5 (24.4) h*ng mL^−1
  AUC0–∞, mean (CV%): 1476.7 (25.4) h*ng mL^−1
  C max, mean (CV%): 276.0 (21.6) ng mL^−1
  t max, median (range): 1.50 (1.00–4.00) h
[4]; [8]
  AUC0–24, mean (CV%): 1660.5 (25.4) h*ng mL^−1
  C max, mean (CV%): 307.2 (17.0) ng mL^−1
  t max, median (range): 1.250 (1.00–3.00) h
  t ½z, mean (CV%): 4.923 (17.8) h
[4]; [9]
  AUC0–24, mean (CV%): 3747.3 (6.4) h*ng mL^−1
  AUC0–∞, mean (CV%): 3822.0 (5.7) h*ng mL^−1
  C max, mean (CV%): 679.3 (28.8) ng mL^−1
  t max, median (range): 1.50 (1.00–3.00) h
[4]; [10]
  AUC0–24, mean (CV%): 4058.3 (6.1) h*ng mL^−1
  C max, mean (CV%): 697.7 (14.7) ng mL^−1
  t max, median (range): 1.00 (1.00–1.50) h
  t ½z, mean (CV%): 5.357 (8.7) h
